Laboratory results from US12351580B2, “NLRP3 modulators” (Innate Tumor Immunity, Inc., priority 2017, dated 2025).

Target: T1, TLR7 (Homo sapiens, UniProt Q9NYK1)
T1 construct: host or cells: HEK-Blue cells (human HEK) co-expressing TLR7 and an NF-kB/AP1-inducible SEAP reporter
T1 sequence (Q9NYK1 27-1049): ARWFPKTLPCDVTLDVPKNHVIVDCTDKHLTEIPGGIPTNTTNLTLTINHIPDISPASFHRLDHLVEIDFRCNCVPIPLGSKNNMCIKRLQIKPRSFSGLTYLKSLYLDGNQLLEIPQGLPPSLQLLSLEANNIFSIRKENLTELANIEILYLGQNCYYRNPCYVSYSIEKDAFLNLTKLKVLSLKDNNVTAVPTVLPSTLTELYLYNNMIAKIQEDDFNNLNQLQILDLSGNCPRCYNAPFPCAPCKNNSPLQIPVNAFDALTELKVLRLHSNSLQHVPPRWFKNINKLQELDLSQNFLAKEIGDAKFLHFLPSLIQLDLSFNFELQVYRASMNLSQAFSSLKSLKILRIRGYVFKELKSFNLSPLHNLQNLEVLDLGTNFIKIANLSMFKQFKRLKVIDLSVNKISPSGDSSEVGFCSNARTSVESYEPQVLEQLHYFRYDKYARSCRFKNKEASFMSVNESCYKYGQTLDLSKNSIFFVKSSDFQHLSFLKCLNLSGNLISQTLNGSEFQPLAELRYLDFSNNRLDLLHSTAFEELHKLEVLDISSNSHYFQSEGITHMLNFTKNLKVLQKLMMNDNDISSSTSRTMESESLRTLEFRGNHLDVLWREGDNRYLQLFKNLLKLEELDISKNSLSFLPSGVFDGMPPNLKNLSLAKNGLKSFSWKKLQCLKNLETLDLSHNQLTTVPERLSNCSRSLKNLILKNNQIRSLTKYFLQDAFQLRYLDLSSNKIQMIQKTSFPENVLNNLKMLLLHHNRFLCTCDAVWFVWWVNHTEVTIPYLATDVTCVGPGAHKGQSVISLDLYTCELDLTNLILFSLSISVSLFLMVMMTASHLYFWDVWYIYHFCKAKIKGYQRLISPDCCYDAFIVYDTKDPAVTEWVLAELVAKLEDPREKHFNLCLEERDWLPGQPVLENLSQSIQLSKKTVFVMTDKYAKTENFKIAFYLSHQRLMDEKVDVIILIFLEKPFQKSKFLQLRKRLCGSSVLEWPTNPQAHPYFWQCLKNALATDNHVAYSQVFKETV
Assay: In vitro human TLR7 binding reporter assay (HEK-Blue, NF-kB/AP1-inducible SEAP)
Format: cell-based
Details: activity range symbols
In short: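 Reporter cells are plated at 15,000 per well and rested 24 h. Next day, test compounds or DMSO are dispensed, followed by 18 h incubation at 37 °C, 5% CO2.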

| Structure (SMILES) | EC50 |
| --- | --- |
| CCC(=O)NCc1nc2c(N)nc3cc(-c4cc[nH]n4)ccc3c2[nH]1 [Compound 111] | > 100 µM |
| CCN(Cc1nc2c(N)nc3cc(-c4cc[nH]n4)ccc3c2[nH]1)C(=O)c1nccs1 [Compound 114] | > 100 µM |
| CN(Cc1nc2c(N)nc3cc(-c4cc[nH]n4)ccc3c2[nH]1)S(C)(=O)=O [Compound 115] | > 100 µM |
| CC(c1nc2c(N)nc3cc(-n4cccn4)ccc3c2[nH]1)N1CCCC1=O (centres unmarked) [Compound 117] | 20 to 100 µM |
| CCN(Cc1nc2c(N)nc3cc(-c4cc[nH]n4)ccc3c2[nH]1)C(=O)C1CC1 [Compound 118] | > 100 µM |
| Nc1nc2cc(-c3cccs3)ccc2c2[nH]c(CN3CCCC3=O)nc12 [Compound 309, 1-[(4-amino-7-thiophen-2-yl-1H-imidazo[4,5-c]quinolin-2-yl)methyl]pyrrolidin-2-one] | > 100 µM |
| N#Cc1ccccc1-c1ccc2c(c1)nc(N)c1nc(CN3CCCC3=O)[nH]c12 [Compound 315, 2-[4-amino-2-[(2-oxopyrrolidin-l-yl)methyl]-1H-imidazo[4,5-c]quinolin-7-yl]benzonitrile] | > 100 µM |
| Nc1nc2cc(Br)ccc2c2[nH]c(CN3CC(c4ccccc4)CC3=O)nc12 (centres unmarked) [Compound 316, 1-[(4-amino-7-bromo-1H-imidazo[4,5-c]quinolin-2-yl)methyl]-4-phenylpyrrolidin-2-one] | > 100 µM |
| COc1ncccc1-c1ccc2c(c1)nc(N)c1nc(CN3CCCC3=O)[nH]c12 [Compound 319, 1-[[4-amino-7-(2-methoxypyridin-3-yl)-1H-imidazo[4,5-c]quinolin-2-yl]methyl]pyrrolidin-2-one] | > 100 µM |
| Nc1nc2cc(-c3cccnc3Cl)ccc2c2[nH]c(CN3CCCC3=O)nc12 [Compound 320, 1-[[4-amino-7-(2-chloropyridin-3-yl)-1H-imidazo[4,5-c]quinolin-2-yl]methyl]pyrrolidin-2-one] | > 100 µM |
| Nc1nc2cc(-c3cnccc3Cl)ccc2c2[nH]c(CN3CCCC3=O)nc12 [Compound 321, 1-[[4-amino-7-(4-chloropyridin-3-yl)-1H-imidazo[4,5-c]quinolin-2-yl]methyl]pyrrolidin-2-one] | 20 to 100 µM |
| Nc1nc2cc(-c3ccc(C(F)(F)F)nc3)ccc2c2[nH]c(CN3CCCC3=O)nc12 [Compound 324, 1-[[4-amino-746-(trifluoromethyppyridin-3-yl]-1H-imidazo[4,5-c]quinolin-2-yl]methyl]pyrrolidin-2-one] | > 100 µM |
| N#Cc1cncc(-c2ccc3c(c2)nc(N)c2nc(CN4CCCC4=O)[nH]c23)c1 [Compound 326, 5-[4-amino-2-[(2-oxopyrrolidin-l-yl)methyl]-1H-imidazo[4,5-c]quinolin-7-yl]pyridine-3-carbonitrile] | > 100 µM |
| N#Cc1ccc(-c2ccc3c(c2)nc(N)c2nc(CN4CCCC4=O)[nH]c23)cn1 [Compound 327, 5-[4-amino-2-[(2-oxopyrrolidin-l-yl)methyl]-1H-imidazo[4,5-c]quinolin-7-yl]pyridine-2-carbonitrile] | > 100 µM |
| Nc1nc2cc(-c3cncc(Cl)c3)ccc2c2[nH]c(CN3CCCC3=O)nc12 [Compound 328, 1-[[4-amino-7-(5-chloropyridin-3-yl)-1H-imidazo[4,5-c]quinolin-2-yl]methyl]pyrrolidin-2-one] | > 100 µM |
| Nc1nc2cc(-c3ccc(F)nc3)ccc2c2[nH]c(CN3CCCC3=O)nc12 [Compound 330, 1-[[4-amino-7-(6-fluoropyridin-3-yl)-1H-imidazo[4,5-c]quinolin-2-yl]methyl]pyrrolidin-2-one] | > 100 µM |
| Nc1nc2cc(-c3cncc(F)c3)ccc2c2[nH]c(CN3CCCC3=O)nc12 [Compound 331, 1-[[4-amino-7-(5-fluoropyridin-3-yl)-1H-imidazo[4,5-c]quinolin-2-yl]methyl]pyrrolidin-2-one] | > 100 µM |
| Nc1nc2cc(C3CCCCCC3)ccc2c2[nH]c(CN3CCCC3=O)nc12 [Compound 332, 1-[(4-amino-7-cycloheptyl-1H-imidazo[4,5-c]quinolin-2-yl)methyl]pyrrolidin-2-one] | > 100 µM |

| Structure (SMILES) | EC50 |
| --- | --- |
| Nc1nc2cc(-c3cccnc3)ccc2c2[nH]c(CN3CC(c4ccccc4)CC3=O)nc12 (centres unmarked) [Compound 333, 1-[(4-amino-7-pyridin-3-yl-1H-imidazo[4,5-c]quinolin-2-yl)methyl]-4-phenylpyrrolidin-2-one] | > 100 µM |
| COC(=O)CCCn1c(CN2CCCC2=O)nc2c(N)nc3ccccc3c21 [Compound 335] | > 100 µM |
| CN(C)C(=O)CCCn1c(CN2CCCC2=O)nc2c(N)nc3cc(Cl)ccc3c21 [Compound 337] | > 100 µM |
| CN(C)C(=O)CCCn1c(CN2CCCC2=O)nc2c(N)nc3cc(-c4cccnc4)ccc3c21 [Compound 340] | > 100 µM |
| COC(=O)CCCn1c(CN2CCCC2=O)nc2c(N)nc3cc(Br)ccc3c21 [Compound 341] | > 100 µM |
| COC(=O)CCCn1c(CN2CCCC2=O)nc2c(N)nc3cc(-c4cccnc4)ccc3c21 [Compound 342] | > 100 µM |
| Nc1nc2ccccc2c2[nH]c(CN3CCCCC3=O)nc12 [Compound 346] | > 100 µM |
| COC(=O)CCCn1c(CN2CCCCC2=O)nc2c(N)nc3ccccc3c21 [Compound 347] | > 100 µM |
| CN(C)Cc1nc2c(N)nc3cc(-c4cc[nH]n4)ccc3c2[nH]1 [Compound 348] | > 100 µM |
| CCN(C)Cc1nc2c(N)nc3cc(-c4cc[nH]n4)ccc3c2[nH]1 [Compound 349] | > 100 µM |
| Nc1nc2cc(-n3cccn3)ccc2c2[nH]c(CN3C[C@@H](c4ccccc4)CC3=O)nc12 [Compound 357] | > 100 µM |
| Nc1nc2cc(-n3cccn3)ccc2c2[nH]c(CN3C[C@H](c4ccccc4)CC3=O)nc12 [Compound 358] | > 100 µM |
| Nc1nc2cc(-c3cc[nH]n3)ccc2c2[nH]c(CN3C(=O)OCC3c3ccccc3)nc12 (centres unmarked) [Compound 363] | > 100 µM |
| Nc1nc2cc(-c3cc[nH]n3)ccc2c2[nH]c(CN3CCOC3=O)nc12 [Compound 365] | > 100 µM |
| CN1CCN(Cc2nc3c(N)nc4cc(-c5cc[nH]n5)ccc4c3[nH]2)C1=O [Compound 368] | > 100 µM |
| CN(Cc1nc2c(N)nc3cc(-c4cc[nH]n4)ccc3c2[nH]1)C(=O)CO [Compound 370] | > 100 µM |
| CN(Cc1nc2c(N)nc3cc(-c4cc[nH]n4)ccc3c2[nH]1)C(=O)CN [Compound 372] | > 100 µM |

Further lines, results first:

| EC50 | Structure (SMILES) |
| --- | --- |
| > 100 µM | CN(C)C(=O)N(C)Cc1nc2c(N)nc3cc(-c4cc[nH]n4)ccc3c2[nH]1 [Compound 375] |
| > 100 µM | CN(Cc1nc2c(N)nc3cc(-c4cc[nH]n4)ccc3c2[nH]1)C(=O)c1ccccc1 [Compound 376] |
| > 100 µM | CN(Cc1nc2c(N)nc3cc(-c4cc[nH]n4)ccc3c2[nH]1)C(=O)c1nccs1 [Compound 377] |
| > 100 µM | CCN(C=O)Cc1nc2c(N)nc3cc(-c4cc[nH]n4)ccc3c2[nH]1 [Compound 379] |
| > 100 µM | CCN(Cc1nc2c(N)nc3cc(-c4cc[nH]n4)ccc3c2[nH]1)C(=O)CN(C)C [Compound 383] |
| > 100 µM | CCN(Cc1nc2c(N)nc3cc(-c4ccn(C)n4)ccc3c2[nH]1)C(=O)OC(C)(C)C [Compound 393] |
| > 100 µM | CCN(Cc1nc2c(N)nc3cc(-c4ccsc4)ccc3c2[nH]1)C(=O)OC(C)(C)C [Compound 397] |
| > 100 µM | CCNCc1nc2c(N)nc3cc(-n4cccn4)ccc3c2[nH]1 [Compound 398] |
| > 100 µM | CCNCc1nc2c(N)nc3cc(-c4cccs4)ccc3c2[nH]1 [Compound 399] |
| > 100 µM | CCNCc1nc2c(N)nc3cc(-c4ccsc4)ccc3c2[nH]1 [Compound 400] |
| > 100 µM | CNCc1nc2c(N)nc3cc(-c4cc[nH]n4)ccc3c2[nH]1 [Compound 401] |
| > 100 µM | CNCc1nc2c(N)nc3cc(-n4cccn4)ccc3c2[nH]1 [Compound 402] |
| > 100 µM | COc1ccc(Cn2c(CN3CCN(C)C3=O)nc3c(N)nc4cc(-c5cc[nH]n5)ccc4c32)cc1 [Compound 403] |
| > 100 µM | COc1ccc(Cn2c(CN3C(=O)OCC3COCc3ccccc3)nc3c(N)nc4cc(-c5cc[nH]n5)ccc4c32)cc1 (centres unmarked) [Compound 404] |
| > 100 µM | COC(=O)N(C)Cc1nc2c(N)nc3cc(-c4cc[nH]n4)ccc3c2[nH]1 [Compound 405] |
| > 100 µM | CCN(Cc1nc2c(N)nc3cc(-c4cc[nH]n4)ccc3c2[nH]1)C(=O)OC [Compound 406] |
| > 100 µM | Nc1nc2cc(-c3cc[nH]n3)ccc2c2[nH]c(CN3C[C@@H](c4ccccc4)CC3=O)nc12 [Compound 407] |
| > 100 µM | Nc1nc2cc(-c3cc[nH]n3)ccc2c2[nH]c(CN3C[C@H](c4ccccc4)CC3=O)nc12 [Compound 408] |
